Laboratory results: patent US20200054057A1, “USE OF ACETYLENIC FATTY ACID COMPOUNDS AS KOKUMI FLAVOR” (Takasago International Corporation, priority 2017, published 2020)
Entries after “also recorded” stand apart in the source; their conditions may differ.

How the values were obtained:
[1] = tested on: trained sensory panel; experiment: Intrinsic taste recognition thresholds, three-alternative forced choice tests in 1% ethanol; type: in vivo, human; settings: in 1% ethanol/water; for Intrinsic taste threshold: three-alternative forced choice; for Intrinsic taste quality: taste recognized at threshold
Description: Seventeen trained assessors (ten women and seven men, ages 23-30) were recruited from the Chair of Food Chemistry and Molecular Sensory Science (TUM). The sensory sessions were performed at 22° C. in air-conditioned sensory booths. To prevent cross-modal interactions with odorants, the panelists used nose-clips. Furthermore the light in the sensory booths was adjusted to yellow in order to eliminate optical differences between the samples. The human recognition thresholds for the intrinsic taste of the purified compounds were determined by means of three-alternative forced choice tests in 1% ethanol. Serial 1:2 dilutions of the sample were presented in order of increasing concentrations to the panelists using the sip-and-spit-method. The geometric mean of the last and the next-to-last concentrations were calculated and taken as the individual recognition threshold. The threshold values evaluated in two different sessions were averaged.

[2] = tested on: trained sensory panel; experiment: Taste recognition thresholds for kokumi/mouthfulness enhancement, duo-trio tests in chanterelle flavor recombinant; type: in vivo, human; settings: for Kokumi threshold: in recombinant chanterelle flavor, pH 5.8, duo-trio test; for Kokumi effect (in words): vis-à-vis recombinant chanterelle flavor
Description: An artificial chanterelle flavor recombinant was used as a reference flavor for determining the flavor-enhancing effect of the compounds to be tested. The pH value was adjusted to 5.8 with trace amounts of formic acid: Seventeen trained assessors (ten women and seven men, ages 23-30) were recruited from the Chair of Food Chemistry and Molecular Sensory Science (TUM). The sensory sessions were performed at 22° C. in air-conditioned sensory booths. To prevent cross-modal interactions with odorants, the panelists used nose-clips. Furthermore the light in the sensory booths was adjusted to yellow in order to eliminate optical differences between the samples. The taste threshold concentrations of the purified compounds were determined in the above-described chanterelle flavor recombinant using duo-trio-tests. The pH value of the individual samples and blanks was adjusted to 5.8 by adding trace amounts of formic acid. The samples were presented in serial 1:2 dilutions in order of increasing concentrations to the trained panel and the panelists were asked to mark the sample differing from the recombinant which was used as constant reference (one sample was identical to the reference, one sample was different). The threshold value of the sensory panel was approximated by averaging the threshold values of the individual panelists in two independent sessions.

Question: Which Intrinsic taste threshold [1] does the source give for `O=C(O)CCCCCCC/C=C\CC#CC(O)/C=C/C(O)CO` (stereo not drawn) [Compound 1, (9Z,15E)-14,17,18-trihydroxy-9,15-octadecadien-12-ynoic acid] here?
Answer: The Intrinsic taste threshold was greater than 1000 µmol/L.

Question: And the Kokumi threshold [2]?
Answer: The Kokumi threshold was 59 µmol/L.

Question: How did the Intrinsic taste quality [1] turn out when `O=C(O)CCCCCCC/C=C\C=C/CC(O)CCC(O)CO` (stereo not drawn) [Compound 2, (9Z,11Z)-14,17,18-trihydroxy-9,11-octadecadienoic acid] was run?
Answer: The Intrinsic taste quality was “[bitter]”.

Question: What about the Intrinsic taste threshold [1] of the same compound?
Answer: The Intrinsic taste threshold was 331 µmol/L.

Question: And the “Kokumi effect (in words)” value [2]?
Answer: Its value is “did not exhibit a kokumi effect; also recorded: do not exhibit a kokumi flavor”.

Question: Which results are given for `O=C(O)CCCCCCC/C=C\C=C/CC(O)CCCCO` (stereo not drawn) [Compound 3, (9Z,11Z)-14,18-dihydroxyoctadeca-9,11-dienoic acid]?
Answer: Intrinsic taste quality [1]: [bitter]; Intrinsic taste threshold [1]: 281 µmol/L; Kokumi effect (in words) [2]: did not exhibit a kokumi effect; also recorded: do not exhibit a kokumi flavor

Question: Which Intrinsic taste quality [1] does the source give for `CCC/C=C\C#C/C=C/C(O)CCCCCCCC(=O)O` (stereo not drawn) [Compound 4, (10E,14Z)-9-hydroxy-10,14-octadecadien-12-ynoic acid] here?
Answer: Its Intrinsic taste quality is “[astringent]”.

Question: And the Intrinsic taste threshold [1]?
Answer: Its Intrinsic taste threshold is 320 µmol/L.

Question: What about the Kokumi threshold [2] of the same compound?
Answer: Its Kokumi threshold is 69 µmol/L.

Question: How did the Intrinsic taste quality [1] turn out when `CC/C=C/C(=O)C#CC/C=C\CCCCCCCC(=O)O` [Compound 5, (9Z,15E)-14-oxo-9,15-octadecadien-12-ynoic acid] was run?
Answer: Its Intrinsic taste quality is “[pungent]”.

Question: And the Intrinsic taste threshold [1]?
Answer: The Intrinsic taste threshold was 228 µmol/L.

Question: And the Kokumi threshold [2]?
Answer: Its Kokumi threshold is 19 µmol/L.

Question: Which results are given for `CCC/C=C\C#C/C=C/C(=O)CCCCCCCC(=O)O` [Compound 6, (10E,14Z)-9-oxo-10,14-octadecadien-12-ynoic acid]?
Answer: Intrinsic taste quality [1]: [astringent]; Intrinsic taste threshold [1]: 639 µmol/L; Kokumi threshold [2]: 79 µmol/L

Question: For `CCC/C=C\CC(O)/C=C/CCCCCCCCC(=O)O` (stereo not drawn) [Compound 8, (10E,14Z)-12-hydroxy-10,14-octadecadienoic acid], which Intrinsic taste quality [1] is on record?
Answer: The Intrinsic taste quality was “[bitter]”.

Question: What about the Intrinsic taste threshold [1] of the same compound?
Answer: The Intrinsic taste threshold was 297 µmol/L.

Question: And the “Kokumi effect (in words)” value [2]?
Answer: Its value is “did not exhibit a kokumi effect; also recorded: do not exhibit a kokumi flavor”.

Question: How did the Kokumi threshold [2] turn out when `CC/C=C/C(=O)C#CC/C=C\CCCCCCCC(=O)OC` [Compound 9, (9Z,15E)-14-oxo-9,15-octadecadien-12-ynoic acid methyl ester] was run?
Answer: Its Kokumi threshold is 59 µmol/L.

Question: Which Intrinsic taste quality [1] does the source give for `CCC/C=C\C#C/C=C/C(CCCCCCCC(=O)O)OO` (stereo not drawn) [Compound 10, (10E,14Z)-9-hydroperoxy-10,14-octadecadien-12-ynoic acid] here?
Answer: Its Intrinsic taste quality is “[bitter]”.

Question: What about the Intrinsic taste threshold [1] of the same compound?
Answer: Its Intrinsic taste threshold is 536 µmol/L.

Question: And the Kokumi threshold [2]?
Answer: The Kokumi threshold was 38 µmol/L.

Question: For `CCC/C=C\C#CC/C=C\CCCCCCCC(=O)O` [Compound 11, 14,15-dehydrocrepenynic acid], which Intrinsic taste quality [1] is on record?
Answer: Its Intrinsic taste quality is “[bitter]”.

Question: What about the Intrinsic taste threshold [1] of the same compound?
Answer: The Intrinsic taste threshold was 531 µmol/L.

Question: What about the Kokumi threshold [2] of the same compound?
Answer: The Kokumi threshold was 105 µmol/L.

Question: Which Intrinsic taste quality [1] does the source give for `CCC/C=C\C#CC/C=C\CCCCCCCC(=O)OC` [Compound 12, 14,15-dehydrocrepenynic acid methyl ester] here?
Answer: The Intrinsic taste quality was “[astringent]”.

Question: What about the Intrinsic taste threshold [1] of the same compound?
Answer: The Intrinsic taste threshold was 648 µmol/L.

Question: What about the Kokumi threshold [2] of the same compound?
Answer: The Kokumi threshold was 32 µmol/L.

Question: Which Intrinsic taste quality [1] does the source give for `CCC/C=C\C#CC/C=C\CCCCCCCC(=O)OCC` [Compound 13, 14,15-dehydrocrepenynic acid ethyl ester] here?
Answer: Its Intrinsic taste quality is “[astringent]”.

Question: What about the Intrinsic taste threshold [1] of the same compound?
Answer: Its Intrinsic taste threshold is 512 µmol/L.

Question: And the Kokumi threshold [2]?
Answer: The Kokumi threshold was 59 µmol/L.

Question: Which results are given for `CCCCCC/C=C/C#CCCCCCCCC(=O)O` [ximenynic acid, 11E-octadecen-9-ynoic acid, reference compound]?
Answer: Intrinsic taste quality [1]: [bitter]; Intrinsic taste threshold [1]: 482 µmol/L; Kokumi threshold [2]: 84 µmol/L
